The text below walks through data of patent US10000456B2, “Polycyclic compounds as lysophosphatidic acid receptor antagonists” (AMIRA PHARMACEUTICALS, INC., priority 2009, dated 2018).

pIC50: −log10 of the molar value.

Broadly, the pIC50 is −log10 of the IC50, conventionally taken in molar units.

The test system of the first assay is bleomycin-induced lung fibrosis. Put plainly: Bleomycin-induced lung fibrosis model in mice. The format is in vivo. The settings on record: acute setting (3 day). The source says:
Female C57Bl/6 mice (Harlan, 25-30 g) are housed 4 per cage, given free access to food and water and allowed to acclimate for at least 7 days prior to test initiation. After the habituation phase, mice are lightly anesthetized with isoflurane (5% in 100% O2) and administered with bleomycin sulfate (0.01-5 U/kg, Henry Schein) via intratracheal instillation (Cuzzocrea, S. et al., Am. J. Physiol. Lung. Cell. Mol. Physiol., 292(5):[…]-[…] (Epub Jan. 12, 2007)). Mice are returned to their cages and monitored daily for the duration of the experiment. Test compound or vehicle is delivered p.o., i.p. or s.c. daily. The route and frequency of dosing is based on previously determined pharmacokinetic properties. […] BALF is analyzed for concentrations of inflammatory, pro-fibrotic and tissue injury biomarkers including transforming growth factor 131, hyaluronic acid, tissue inhibitor of metalloproteinase-1, matrix matelloproteinase-7, connective tissue growth factor and lactate dehydrogenase activity, using commercially available ELISA. […] Total cell counts are then obtained using a HEMAVET® hematology system (Drew Scientific, Wayne, Pa.) and differential cells counts are determined using Shandon cytospin (Thermo Scientific, Waltham, Mass.). […] The data are plotted using GraphPad Prism and statistical differences between groups determined.
With `Cc1noc(-c2ccc(-c3ccc(C4(C(=O)O)CC4)cc3)cc2)c1C(O)c1cn(Cc2ccccc2)nn1` (single isomer, unassigned) [Compound 19, 1-(4′-{4-[(1-Benzyl-1H-[1,2,3]triazol-4-yl)-hydroxy-methyl]-3-methyl-isoxazol-5-yl}-biphenyl-4-yl)-cyclopropanecarboxylic acid], the “collagen concentration in broncheoalveolar lavage fluid (BALF)” value was “significantly reduced” and the “total protein concentration in broncheoalveolar lavage fluid (BALF)” value is given as “significantly reduced”.

The next assay has as its system A2058 human melanoma cells. Put plainly: LPA1 chemotaxis assay. Format: cell-based. The note with it: LPA 100 nM, read-out: IC50, inhibition of LPA-driven chemotaxis. The method, then:
Chemotaxis of the A2058 human melanoma cells was measured using the Neuroprobe CHEMOTX® System plates ([…], 5.7 mm diameter sites). The filter sites were coated with 0.001% fibronectin (Sigma) in 20 mM Hepes, pH 7.4 and allowed to dry. A2058 cells were serum-starved for 24 hours, then harvested with Cell Stripper and resuspended in DMEM containing 0.1% fatty-acid-free bovine serum albumin (BSA) to a concentration of 1×10^6/ml. Cells were mixed with an equal volume of test compound (2×) in DMEM containing 0.1% fatty-acid-free BSA and incubated at 37° C. for 15 minutes. LPA (100 nM in DMEM containing 0.1% fatty-acid-free BSA) or vehicle was added to each well of the lower chamber and 50 μl of the cell suspension/test compound mix was applied to the upper portion of the CHEMOTX® plate. Plates were incubated at 37° C. for three hours and then the cells removed from the upper portion by rinsing with PBS and scraping. The filter was dried then stained with HEMA 3® Staining System (Fisher Scientific). The absorbance of the filter was read at 590 nm and IC50s were determined using SYMYX® Assay Explorer.
With `Cc1noc(-c2ccc(-c3ccc(C4(C(=O)O)CC4)cc3)cc2)c1Nc1cncc(-c2cccc(C(F)(F)F)c2)c1` [Compound 68, 1-(4′-{3-Methyl-4-[5-(3-trifluoromethyl-phenyl)-pyridin-3-ylamino]-isoxazol-5-yl}-biphenyl-4-yl)-cyclopropanecarboxylic acid], the pIC50 is above 7.00. Same read-out and setting: next, `Cc1noc(-c2ccc(-c3ccc(C4(C(=O)O)CC4)cc3)cc2)c1Nc1cccc(-c2cccc(F)c2)n1` [Compound 52, 1-(4′-{4-[6-(3-Fluoro-phenyl)-pyridin-2-ylamino]-3-methyl-isoxazol-5-yl}-biphenyl-4-yl)-cyclopropanecarboxylic acid]: above 7.00; `Cc1noc(-c2ccc(-c3ccc(C4(C(=O)O)CC4)cc3)cc2)c1Nc1cccc(Cc2ccc(F)cc2)n1` [Compound 47, 1-(4′-{4-[6-(4-Fluoro-benzyl)-pyridin-2-ylamino]-3-methyl-isoxazol-5-yl}-biphenyl-4-yl)-cyclopropanecarboxylic acid]: above 7.00; `Cc1noc(-c2ccc(-c3ccc(C4(C(=O)NS(C)(=O)=O)CC4)cc3)cc2)c1Nc1cccc(Cc2ccccc2)n1` [Compound 95, N-(1-{4′-[4-(6-Benzyl-pyridin-2-ylamino)-3-methyl-isoxazol-5-yl]-biphenyl-4-yl}-cyclopropanecarbonyl)-methanesulfonamide]: above 7.00.

Consider `Cc1noc(-c2ccc(-c3ccc(C4(C(=O)O)CC4)cc3)cc2)c1Nc1cncc(-c2cccc(F)c2Cl)c1` [Compound 82, 1-(4′-{4-[5-(2-Chloro-3-fluoro-phenyl)-pyridin-3-ylamino]-3-methyl-isoxazol-5-yl}-biphenyl-4-yl)-cyclopropanecarboxylic acid], for which the negative-log IC50 (pIC50) is above 7.00. Still for that read-out and setting: for `Cc1noc(-c2ccc(-c3ccc(C4(C(=O)O)CC4)cc3)cc2)c1Nc1cccc(-c2cccc(F)c2C)n1` [Compound 83, 1-(4′-{4-[6-(3-Fluoro-2-methyl-phenyl)-pyridin-2-ylamino]-3-methyl-isoxazol-5-yl}-biphenyl-4-yl)-cyclopropanecarboxylic acid] the value was above 7.00. Same read-out and setting: next, `Cc1noc(-c2ccc(-c3ccc(C4(C(=O)O)CC4)cc3)cc2)c1Nc1cc(-c2ccccc2)ccn1` [Compound 67, 1-{4′-[3-Methyl-4-(4-phenyl-pyridin-2-ylamino)-isoxazol-5-yl]-biphenyl-4-yl}-cyclopropanecarboxylic acid]: above 7.00; `Cc1noc(-c2ccc(-c3ccc(C4(C(=O)O)CC4)cc3)cc2)c1Nc1nnc(Cc2ccccc2)o1` [Compound 44, 1-{4′-[4-(5-Benzyl-[1,3,4]oxadiazol-2-ylamino)-3-methyl-isoxazol-5-yl]-biphenyl-4-yl}-cyclopropanecarboxylic acid]: above 7.00. On the same count and under the same terms, next, `Cc1noc(-c2ccc(-c3ccc(C4(C(=O)O)CC4)cc3)cc2)c1Nc1cccc(-c2ccccc2)n1` [Compound 33, 1-{4′-[3-Methyl-4-(6-phenyl-pyridin-2-ylamino)-isoxazol-5-yl]-biphenyl-4-yl}-cyclopropanecarboxylic acid]: above 7.00; `Cc1noc(-c2ccc(-c3ccc(C4(C(=O)O)CC4)cc3)cc2)c1Nc1cccc(-c2ccccc2)c1` [Compound 39, 1-{4′-[4-(Biphenyl-3-ylamino)-3-methyl-isoxazol-5-yl]-biphenyl-4-yl}-cyclopropanecarboxylic acid]: above 7.00; `Cc1noc(-c2ccc(-c3ccc(C4(C(=O)O)CC4)cc3)cc2)c1Nc1cccc(-c2cc(F)ccc2Cl)n1` [Compound 79, 1-(4′-{4-[6-(2-Chloro-5-fluoro-phenyl)-pyridin-2-ylamino]-3-methyl-isoxazol-5-yl}-biphenyl-4-yl)-cyclopropanecarboxylic acid]: above 7.00. Take `Cc1noc(-c2ccc(-c3ccc(C4(C(=O)O)CC4)cc3)cc2)c1Nc1cncc(-c2cccc(F)c2)c1` [Compound 59, 1-(4′-{4-[5-(3-Fluoro-phenyl)-pyridin-3-ylamino]-3-methyl-isoxazol-5-yl}-biphenyl-4-yl)-cyclopropanecarboxylic acid]: the pIC50 is above 7.00.

Consider `Cc1noc(-c2ccc(-c3ccc(C4(C(=O)O)CC4)cc3)cc2)c1C(O)c1cn(C(C)c2ccccc2)nn1` (stereo not shown) [Compound 23, 1-[4′-(4-{Hydroxy-[1-(1-phenyl-ethyl)-1H-[1,2,3]triazol-4-yl]-methyl}-3-methyl-isoxazol-5-yl)-biphenyl-4-yl]-cyclopropanecarboxylic acid], for which the pIC50 is above 7.00.

Turning to `Cc1noc(-c2ccc(-c3ccc(C4(C(=O)O)CC4)cc3)cc2)c1Nc1nccc(-c2ccccc2)n1` [Compound 66, 1-{4′-[3-Methyl-4-(4-phenyl-pyrimidin-2-ylamino)-isoxazol-5-yl]-biphenyl-4-yl}-cyclopropanecarboxylic acid], the pIC50 was above 7.00. On to `Cc1noc(-c2ccc(-c3ccc(C4(C(=O)O)CC4)cc3)cc2)c1[C@@H](O)c1cn([C@H](C)c2ccccc2)nn1` [Compound 32, 1-[4′-(4-{(R)-Hydroxy-[1-((R)-1-phenyl-ethyl)-1H-[1,2,3]triazol-4-yl]-methyl}-3-methyl-isoxazol-5-yl)-biphenyl-4-yl]-cyclopropanecarboxylic acid], for which the negative logarithm of the IC50 (pIC50) was above 7.00. For the molecule `Cc1noc(-c2ccc(-c3ccc(C4(C(=O)O)CC4)cc3)cc2)c1Nc1cccc(Cc2cccc(F)c2)n1` [Compound 46, 1-(4′-{4-[6-(3-Fluoro-benzyl)-pyridin-2-ylamino]-3-methyl-isoxazol-5-yl}-biphenyl-4-yl)-cyclopropanecarboxylic acid], the pIC50 is above 7.00. With `Cc1noc(-c2ccc(-c3ccc(C4(C(=O)NS(C)(=O)=O)CC4)cc3)cc2)c1C(O)c1cn(Cc2ccccc2)nn1` (single isomer, unassigned) [Compound 91, N-[1-(4′-{4-[(1-Benzyl-1H-[1,2,3]triazol-4-yl)-hydroxy-methyl]-3-methyl-isoxazol-5-yl}-biphenyl-4-yl)-cyclopropanecarbonyl]-methanesulfonamide], the negative logarithm of the IC50 (pIC50) is above 7.00. As to `Cc1noc(-c2ccc(-c3ccc(C4(C(=O)NS(C)(=O)=O)CC4)cc3)cc2)c1C(O)c1nnc(Cc2ccccc2)o1` (single isomer, unassigned) [Compound 92, N-[1-(4′-{4-[(5-Benzyl-[1,3,4]oxadiazol-2-yl)-hydroxy-methyl]-3-methyl-isoxazol-5-yl}-biphenyl-4-yl)-cyclopropanecarbonyl]-methanesulfonamide], the negative-log IC50 (pIC50) was above 7.00.

Another assay concerns renal fibrosis.
Assay: not given
The settings on record: compared with LPA1 (−/−) mice; cited from earlier work.
For `Cc1noc(-c2ccc(CSCCC(=O)O)cc2)c1NC(=O)OC(C)c1ccccc1Cl` (stereo not shown) [Ki16425], the “development of renal fibrosis in UUO mice” value is reported as “closely resembled the LPA1 (−/−) mice”.

In a further assay the test system is highly peritoneal metastatic pancreatic cancer cell line.
Assay: not given
The settings on record: cited from earlier work.
Regarding `Cc1noc(-c2ccc(CSCCC(=O)O)cc2)c1NC(=O)OC(C)c1ccccc1Cl` (stereo not shown) [Ki16425], the “LPA-induced and ascites-induced invasion activity” value is “blocked”.
